Tested on: peripheral blood mononuclear cells (PBMC)
Experiment: Cytokine and immune-function gene expression of PBMC in vitro (qRT-PCR, 41 immune-related genes)
Format: cell-based, human
Details: for Ratio of absolute IFNG gene expression in group A vs. Groups B + C pooled: group A day 57 after SADBE
Description: After a screening visit at which blood was drawn to test for IgG antibody against HSV-1 and subjects were interviewed for inclusion/exclusion criteria, selected subjects returned for blood draws on day 1. After the blood draw on day 1, subjects in group A only were dosed with SADBE. A petrolatum donut was applied with a cotton swab to form about a 1 cm diameter donut on skin on the inner aspect of the upper arm. Then a separate cotton swab was dipped in a 2% SADBE solution (w/v) in DMSO, and the swab was then used to apply about 10-20 mg of solution over about a 1 cm diameter circle within the petrolatum donut. Immediately after application, the application site was covered with TEGADERM. Subjects were advised to remove the TEGADERM and rinse and wipe the spot three hours later. The group A subjects then returned for blood draws on days 15 and 57 and were queried about adverse events on those dates.
PBMC were isolated using SepMate PBMC isolation tubes (Stem Cell Technologies, Vancouver, Canada) and Ficoll-Paque according to the manufacturer's instructions. PBMC were isolated and suspended in negative control medium at 2 million cells/ml. PBMC suspension (100 μL) was added to 100 μL of medium in quadruplicate in 96-well plates. The plates were prepared in advance and stored at −70° C. The wells were in five different conditions in quadruplicate with these final concentrations after addition of the 100 μL of PBMC suspension in negative control medium. • 1. Negative control in medium (RPMI with glutamine and pen/strep, supplemented with 10% human A/B serum). • 2. Medium plus 16 μg/ml protein from heat-inactivated HSV-1-infected Vero cell extracts. • 3. Medium plus heat-inactivated HSV-1 cell-free virus at a final 7.5 million pfu/ml. • 4. Medium plus Candida cell extract. (Greer item number M15A50, 20,000 pnu/ml allergenic extract mixed molds Candida albicans, was diluted 1/50 into medium). • 5. Positive control, medium plus 10 μg/ml concanavalin A.
Two plates were created for each subject at each collection point. One plate was incubated for 2 days at 37° C. in a humidified 5% CO2 atmosphere and then RNA was isolated from the pooled contents of the 4 wells of a given condition for a specific patient, and the RNA was stored at −70° C. and subsequently used for quantitative real time PCR analysis of gene expression of 41 immune-related genes.
As noted above, after 2 days of growth of the PBMC in a 37° C. humidified 5% CO2 incubator in a 96-well plate, four wells of a single condition (negative control, positive control, heat-inactivated HSV-1, HSV-1-infected cell extracts, or Candida extract) with cells from a single subject (200 μL in each well) were pooled, and the RNA was immediately isolated with Trizol reagent and chloroform by Qiagen RNeasy MiniElute clean up kit Qiagen cat #74204, according to manufacturer's instructions into a final volume of 13 μL, and then flash frozen on powdered dry ice, and stored at −70° C. in aliquots of 3 μL for RNA quantification and 10 μL for PCR analysis.
RNA was preamplified with the Qiagen RT2 PreAMP cDNA synthesis kit (Ref. 330451) and custom RT2 PreAmp primer mix (Ref. 330141) starting with about 50 ng RNA according to the procedure of RT preamp cDNA synthesis handbook date March 2011, pages 17-20. The amplification reactions (final 120 μL) were frozen at −70° C. and used for qPCR analysis the next day.
qPCR was done with the Qiagen RT PCR profiler gene analysis kit (catalog number 330451) using RT2 Sybr Green Rox qPCR Mastermix (24) (Part 330523) and Custom RT2 PCR array plates (Ref. 330171). For this 675 μL 2×RT2 SYBR green mastermix, 51 μL pre-AMP synthesis reaction, and 623 μL RNase free water were mixed, and then 25 μL of the mixture was added to 48 wells on the left or right half of the custom PCR plate. The PCR instrument was Applied Biosystems 7900HT fast real time PCR. […]

[1] = PBMC + Candida extract, group A day 57 vs day 1 (pre-dose), one topical 2% SADBE dose

CCCCOc1c(OCCCC)c(=O)c1=O [SADBE, 3,4-Dibutoxy-3-cyclobutene-1,2-dione]
LTA ratio of PBMC absolute gene expression day 57/day 1 (Group A, Neg. control): 0.73
LYZ ratio of PBMC absolute gene expression day 15/day 1 (Group A, Neg. control): 1.18
LYZ ratio of PBMC absolute gene expression day 57/day 1 (Group A, Neg. control): 0.55
MX1 ratio of PBMC absolute gene expression day 15/day 1 (Group A, Neg. control): 0.81
MX1 ratio of PBMC absolute gene expression day 57/day 1 (Group A, Neg. control): 0.47
NOD1 ratio of PBMC absolute gene expression day 15/day 1 (Group A, Neg. control): 1.14
NOD1 ratio of PBMC absolute gene expression day 57/day 1 (Group A, Neg. control): 0.87
SPP1 ratio of PBMC absolute gene expression day 15/day 1 (Group A, Neg. control): 1.35
SPP1 ratio of PBMC absolute gene expression day 57/day 1 (Group A, Neg. control): 2.38
STAT1 ratio of PBMC absolute gene expression day 15/day 1 (Group A, Neg. control): 0.86
STAT1 ratio of PBMC absolute gene expression day 57/day 1 (Group A, Neg. control): 1.29
STAT4 ratio of PBMC absolute gene expression day 15/day 1 (Group A, Neg. control): 0.94
STAT4 ratio of PBMC absolute gene expression day 57/day 1 (Group A, Neg. control): 0.88
TNF ratio of PBMC absolute gene expression day 15/day 1 (Group A, Neg. control): 0.91
TNF ratio of PBMC absolute gene expression day 57/day 1 (Group A, Neg. control): 1.15
TNFSF10 ratio of PBMC absolute gene expression day 15/day 1 (Group A, Neg. control): 0.93
TNFSF10 ratio of PBMC absolute gene expression day 57/day 1 (Group A, Neg. control): 1
TNFSF13B ratio of PBMC absolute gene expression day 15/day 1 (Group A, Neg. control): 1.03
TNFSF13B ratio of PBMC absolute gene expression day 57/day 1 (Group A, Neg. control): 0.67
CCL2 ratio of PBMC absolute gene expression day 15/day 1 (Group A, Virus): 0.88
CCL2 ratio of PBMC absolute gene expression day 57/day 1 (Group A, Virus): 1.71
CCL3 ratio of PBMC absolute gene expression day 15/day 1 (Group A, Virus): 0.84
CCL3 ratio of PBMC absolute gene expression day 57/day 1 (Group A, Virus): 3.73
CCL7 ratio of PBMC absolute gene expression day 15/day 1 (Group A, Virus): 0.72
CCL7 ratio of PBMC absolute gene expression day 57/day 1 (Group A, Virus): 1.81
CCR5 ratio of PBMC absolute gene expression day 15/day 1 (Group A, Virus): 0.87
CCR5 ratio of PBMC absolute gene expression day 57/day 1 (Group A, Virus): 1.35
CD80 ratio of PBMC absolute gene expression day 15/day 1 (Group A, Virus): 0.79
CD80 ratio of PBMC absolute gene expression day 57/day 1 (Group A, Virus): 1.25
CXCL2 ratio of PBMC absolute gene expression day 15/day 1 (Group A, Virus): 0.91
CXCL2 ratio of PBMC absolute gene expression day 57/day 1 (Group A, Virus): 1.58
CXCL5 ratio of PBMC absolute gene expression day 15/day 1 (Group A, Virus): 0.94
CXCL5 ratio of PBMC absolute gene expression day 57/day 1 (Group A, Virus): 2.52
CXCL9 ratio of PBMC absolute gene expression day 15/day 1 (Group A, Virus): 1.42
CXCL9 ratio of PBMC absolute gene expression day 57/day 1 (Group A, Virus): 2.5
CXCL10 ratio of PBMC absolute gene expression day 15/day 1 (Group A, Virus): 0.74
CXCL10 ratio of PBMC absolute gene expression day 57/day 1 (Group A, Virus): 1.00
CXCL11 ratio of PBMC absolute gene expression day 15/day 1 (Group A, Virus): 0.34
CXCL11 ratio of PBMC absolute gene expression day 57/day 1 (Group A, Virus): 0.40
DDX58 ratio of PBMC absolute gene expression day 15/day 1 (Group A, Virus): 0.66
DDX58 ratio of PBMC absolute gene expression day 57/day 1 (Group A, Virus): 0.95
FOXP3 ratio of PBMC absolute gene expression day 15/day 1 (Group A, Virus): 1.27
FOXP3 ratio of PBMC absolute gene expression day 57/day 1 (Group A, Virus): 2.46
GATA3 ratio of PBMC absolute gene expression day 15/day 1 (Group A, Virus): 0.89
GATA3 ratio of PBMC absolute gene expression day 57/day 1 (Group A, Virus): 0.32
ICAM1 ratio of PBMC absolute gene expression day 15/day 1 (Group A, Virus): 1.01
ICAM1 ratio of PBMC absolute gene expression day 57/day 1 (Group A, Virus): 1.07
IFNA1 ratio of PBMC absolute gene expression day 15/day 1 (Group A, Virus): 0.58
IFNA1 ratio of PBMC absolute gene expression day 57/day 1 (Group A, Virus): 1.34
IFNB1 ratio of PBMC absolute gene expression day 15/day 1 (Group A, Virus): 0.78
IFNB1 ratio of PBMC absolute gene expression day 57/day 1 (Group A, Virus): 0.87
IFNG ratio of PBMC absolute gene expression day 15/day 1 (Group A, Virus): 1.91
IFNG ratio of PBMC absolute gene expression day 57/day 1 (Group A, Virus): 11.01
IL1B ratio of PBMC absolute gene expression day 15/day 1 (Group A, Virus): 0.77
IL1B ratio of PBMC absolute gene expression day 57/day 1 (Group A, Virus): 5.09
IL1R1 ratio of PBMC absolute gene expression day 15/day 1 (Group A, Virus): 0.74
IL1R1 ratio of PBMC absolute gene expression day 57/day 1 (Group A, Virus): 0.97
IL1RN ratio of PBMC absolute gene expression day 15/day 1 (Group A, Virus): 0.77
IL1RN ratio of PBMC absolute gene expression day 57/day 1 (Group A, Virus): 1.48
IL2 ratio of PBMC absolute gene expression day 15/day 1 (Group A, Virus): 1.43
IL2 ratio of PBMC absolute gene expression day 57/day 1 (Group A, Virus): 2.11
IL4 ratio of PBMC absolute gene expression day 15/day 1 (Group A, Virus): 0.80
IL4 ratio of PBMC absolute gene expression day 57/day 1 (Group A, Virus): 1.32
IL5 ratio of PBMC absolute gene expression day 15/day 1 (Group A, Virus): 0.76
IL5 ratio of PBMC absolute gene expression day 57/day 1 (Group A, Virus): 0.56
IL8 ratio of PBMC absolute gene expression day 15/day 1 (Group A, Virus): 1.13
IL8 ratio of PBMC absolute gene expression day 57/day 1 (Group A, Virus): 3.3
IL10 ratio of PBMC absolute gene expression day 15/day 1 (Group A, Virus): 0.74
IL10 ratio of PBMC absolute gene expression day 57/day 1 (Group A, Virus): 2.29
IL12A ratio of PBMC absolute gene expression day 15/day 1 (Group A, Virus): 0.94
IL12A ratio of PBMC absolute gene expression day 57/day 1 (Group A, Virus): 1.48
IL12B ratio of PBMC absolute gene expression day 15/day 1 (Group A, Virus): 0.59
IL12B ratio of PBMC absolute gene expression day 57/day 1 (Group A, Virus): 2.08
IL13 ratio of PBMC absolute gene expression day 15/day 1 (Group A, Virus): 1.43
IL13 ratio of PBMC absolute gene expression day 57/day 1 (Group A, Virus): 3.02
IL15 ratio of PBMC absolute gene expression day 15/day 1 (Group A, Virus): 1.01
IL15 ratio of PBMC absolute gene expression day 57/day 1 (Group A, Virus): 1.54
IL16 ratio of PBMC absolute gene expression day 15/day 1 (Group A, Virus): 0.84
IL16 ratio of PBMC absolute gene expression day 57/day 1 (Group A, Virus): 0.82
JAK2 ratio of PBMC absolute gene expression day 15/day 1 (Group A, Virus): 0.84
JAK2 ratio of PBMC absolute gene expression day 57/day 1 (Group A, Virus): 1.26
LTA ratio of PBMC absolute gene expression day 15/day 1 (Group A, Virus): 1.26
LTA ratio of PBMC absolute gene expression day 57/day 1 (Group A, Virus): 1.84
LYZ ratio of PBMC absolute gene expression day 15/day 1 (Group A, Virus): 1.04
LYZ ratio of PBMC absolute gene expression day 57/day 1 (Group A, Virus): 0.53
MX1 ratio of PBMC absolute gene expression day 15/day 1 (Group A, Virus): 0.49
MX1 ratio of PBMC absolute gene expression day 57/day 1 (Group A, Virus): 0.66
NOD1 ratio of PBMC absolute gene expression day 15/day 1 (Group A, Virus): 0.85
NOD1 ratio of PBMC absolute gene expression day 57/day 1 (Group A, Virus): 1.14
SPP1 ratio of PBMC absolute gene expression day 15/day 1 (Group A, Virus): 1.64
SPP1 ratio of PBMC absolute gene expression day 57/day 1 (Group A, Virus): 15.29
STAT1 ratio of PBMC absolute gene expression day 15/day 1 (Group A, Virus): 0.80
STAT1 ratio of PBMC absolute gene expression day 57/day 1 (Group A, Virus): 1.41
STAT4 ratio of PBMC absolute gene expression day 15/day 1 (Group A, Virus): 1.03
STAT4 ratio of PBMC absolute gene expression day 57/day 1 (Group A, Virus): 1.69
TNF ratio of PBMC absolute gene expression day 15/day 1 (Group A, Virus): 0.97
TNF ratio of PBMC absolute gene expression day 57/day 1 (Group A, Virus): 1.19
TNFSF10 ratio of PBMC absolute gene expression day 15/day 1 (Group A, Virus): 0.68
TNFSF10 ratio of PBMC absolute gene expression day 57/day 1 (Group A, Virus): 1.01
TNFSF13B ratio of PBMC absolute gene expression day 15/day 1 (Group A, Virus): 0.77
TNFSF13B ratio of PBMC absolute gene expression day 57/day 1 (Group A, Virus): 1.23
Ratio of absolute IFNG gene expression in group A vs. Groups B + C pooled (HSV-infected cell extracts): 1.896
Ratio of absolute IFNG gene expression in group A vs. Groups B + C pooled (Neg Control medium): 1.190
ratio of absolute expression in A57 vs. A1: CCL2 [1]: 1.16
ratio of absolute expression in A57 vs. A1: CCL3 [1]: 1.79
ratio of absolute expression in A57 vs. A1: CCL7 [1]: 2.03
ratio of absolute expression in A57 vs. A1: CCR5 [1]: 1.42
ratio of absolute expression in A57 vs. A1: CD80 [1]: 1.57
ratio of absolute expression in A57 vs. A1: CXCL2 [1]: 1.1
ratio of absolute expression in A57 vs. A1: CXCL5 [1]: 1.45
ratio of absolute expression in A57 vs. A1: CXCL9 [1]: 14.21
ratio of absolute expression in A57 vs. A1: CXCL10 [1]: 12.8
ratio of absolute expression in A57 vs. A1: CXCL11 [1]: 2.53
ratio of absolute expression in A57 vs. A1: DDX58 [1]: 1.29

Reference: patent US11957783B2, “Topical immunosensitizers to treat viral and fungal infections” (Squarex, LLC, priority 2018, dated 2024)
